# According to US20150037399A1, “NOVEL USE OF PIPOXOLAN AND ITS PHARMACEUTICAL COMPOSITION” (China Medical University, priority 2013, published 2015):
# Tested on: PCNA-positive cells
# Test: Carotid ligation model, PCNA antibody staining of the carotid artery
# Assay type: in vivo, ICR mice
# Conditions: mice
# Experimental: Male ICR mice, weighing 20 to 25 g, were used as a carotidligation model. Fifteen mice were randomly assigned to 3 treatment groups, five mice for each group. All mice were fasted overnight with free access to water, then anesthetized with zoletil® (25 mg/kg i.p.). Carotid ligation was performed by a midline neck incision and the left common carotid artery exposed. The carotid artery was completely ligated just proximal to the carotid bifurcation, and the right carotid artery served as a non-injured control artery. The incision was closed after ligation, and the animals were allowed to recover. On the day of carotid ligation, mice were randomized into 3 treatment groups and anesthetized as described. Group 1 mice were treated with saline and groups 2 and 3 treated with pipoxolan (10 mg/kg and 30 mg/kg, respectively). Subsequent pipoxolan and saline treatments were given by gastric gavage on the second day after carotid ligation and once daily for 28 days. […] Images were digitized and analyzed with Image-Pro software. The areas of the lumen, internal elastic lamina (IEL), and external elastic lamina (EEL) were determined by computerized planimetry. The intima area was calculated by subtracting the luminal from the IEL area, and media area was determined by subtracting the IEL area from the EEL area. The ratio of intima to media area (I/M ratio) was calculated and analyzed. […]
compound,measurement,setting,value
"Cl.O=C1OC(CCN2CCCCC2)OC1(c1ccccc1)c1ccccc1 (centres unmarked) [pipoxolan, 5,5-diphenyl-2-(2-piperidin-1-ylethyl)-1,3-dioxolan-4-one hydrochloride]",percent inhibition of PCNA-positive cells,10 mg/kg p.o. once daily for 28 days after carotid ligation,42.11%
same,percent inhibition of PCNA-positive cells,30 mg/kg p.o. once daily for 28 days after carotid ligation,62.40%
